Among the data in patent publication US20230357233A1, “HETEROARYL COMPOUNDS, PREPARATION METHODS AND USES THEREOF” (INVENTISBIO CO., LTD., priority 2020, published 2023) are Kd and GI50 values, retold here.

A value given as a limit tells only on which side of the number the result lay.

Ba/F3_KRAS^G12D cells, sequence (P01116 whole entry G12D): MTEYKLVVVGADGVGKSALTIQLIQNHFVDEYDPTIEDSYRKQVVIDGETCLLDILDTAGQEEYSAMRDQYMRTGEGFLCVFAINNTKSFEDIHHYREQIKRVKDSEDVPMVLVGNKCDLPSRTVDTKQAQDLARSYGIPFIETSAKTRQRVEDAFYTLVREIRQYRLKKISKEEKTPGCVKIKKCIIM

The target in the first experiment is recombinant human KRAS^G12D protein (Homo sapiens, UniProt P01116, G12D). Briefly: Temperature-dependent Fluorescence (TdF) KRAS^G12D protein binding assay. Conditions: 6 μM KRAS^G12D Protein, 10 μM compound, Sypro Orange; Kd calculated from fluorescent shift. The procedure: The TdF assay was conducted in the 96-well-based real-time fluorescence plate reader (ABI 7500 or Roche LightCycler 480). Fluorescent dye Sypro Orange (Sigma) was used to monitor the protein folding-unfolding transition. Protein-compound binding was gauged by the shift in the unfolding transition temperature (ΔTm) acquired with and without compound. […] The sample plate was heated from 30° C. to 95° C. with a thermal ramping rate of […], taking a fluorescence reading every 0.4° C. using a CY3 channel matching the excitation and emission wavelengths of Sypro Orange (λ ex 470 nm; λ em 570 nm). Binding affinity (Kd value) was calculated based on the degree of fluorescent shift of the protein with and without compound.
recombinant human KRAS^G12D protein, sequence (P01116 1-188 isoform P01116-2 G12D): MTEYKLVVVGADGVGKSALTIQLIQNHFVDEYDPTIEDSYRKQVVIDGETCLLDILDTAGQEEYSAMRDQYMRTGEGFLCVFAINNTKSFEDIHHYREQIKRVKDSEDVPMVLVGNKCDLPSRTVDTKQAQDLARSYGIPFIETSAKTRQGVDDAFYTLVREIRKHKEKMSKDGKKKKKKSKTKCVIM
On to `Cc1nc(-c2cc(C(F)F)cc3cccc(Cl)c23)c(F)c2nc(OC[C@@]34CCCN3C[C@H](F)C4)nc(N3CC4CCC(C3)N4)c12` [Compound 116], for which the dissociation constant (Kd) is > 5000 nM. The same measure, in the same setting: the figure for `O=c1cc2c(N3CC4CCC(C3)N4)nc(OCC34CCCN3CCC4)nc2cn1-c1cc(O)cc2cccc(Cl)c12` [Compound 111] is > 5000 nM; for `Oc1cc(-c2ncc3c(N4C5CCC4CNC5)nc(OC[C@@]45CCCN4C[C@H](F)C5)nc3c2F)c2c(Cl)cccc2c1` [Compound 70] it is ≤ 500 nM; for `O=c1cc2c(N3CC4CCC(C3)N4)nc(OCC34CCCN3CCC4)nc2cn1-c1cccc2ccccc12` [Compound 110] it is > 5000 nM. As to `c1ccc2c(-c3ncc4c(N5CC6CCC(C5)N6)nc(OCC56CCCN5CCC6)cc4n3)cccc2c1` [Compound 21], the Kd is > 5000 nM.

As for `N#Cc1cc2c(N3CC4CCC(C3)N4)nc(OC[C@@]34CCCN3C[C@H](F)C4)nc2nc1-c1cc(O)cc2ccccc12` [Compound 60], the Kd is > 5000 nM. As to `C#Cc1c(F)ccc2cc(N)cc(-c3nc(OC)c4c(N5CC6CCC(C5)N6)nc(OC[C@@]56CCCN5C[C@H](F)C6)nc4c3F)c12` [Compound 163], the Kd was ≤ 500 nM. In the case of `Oc1cc(-c2ncc3c(N4CC5CCC(C4)N5)cc(OC[C@@]45CCCN4C[C@H](F)C5)nc3c2F)c2ccccc2c1` [Compound 80], the equilibrium dissociation constant (Kd) was 500 to 5000 nM.

Another experiment addresses Ba/F3_KRAS^G12D cells (Homo sapiens, UniProt P01116, G12D, cells depend on it). Briefly: Ba/F3 KRAS^G12D cell proliferation assay (cell-titer Glo). The note with it: cell growth inhibition, treated with the compounds for 3 days, read-out: BaF3_KRAS^G12D IC50. The experiment is classed as cell-based. The procedure:
Cells were seeded at a density of 5×10^3 per well into 96-well plate and incubated overnight. Serial diluted compounds were added to each well. Cells were treated with the compounds for 3 days, after which cell-titer Glo reagent (Promega #G7572) was used to assess cell proliferation. The luminescence signal was then collected on Tecan Spark plate reader. […] Cell growth inhibition of IC50 is calculated with the equation of Y=Bottom+(Top−Bottom)/(1+10^((LogIC50−X)*HillSlope))
`Cc1nc(-c2cc(C(F)F)cc3cccc(Cl)c23)c(F)c2nc(OC[C@@]34CCCN3C[C@H](F)C4)nc(N3CC4CCC(C3)N4)c12` [Compound 116]: the GI50 was in the range of 500 to 5000 nM. As for `O=c1cc2c(N3CC4CCC(C3)N4)nc(OCC34CCCN3CCC4)nc2cn1-c1cc(O)cc2cccc(Cl)c12` [Compound 111], the GI50 was > 5000 nM. Consider `Oc1cc(-c2ncc3c(N4C5CCC4CNC5)nc(OC[C@@]45CCCN4C[C@H](F)C5)nc3c2F)c2c(Cl)cccc2c1` [Compound 70], for which the GI50 is < 500 nM. Turning to `O=c1cc2c(N3CC4CCC(C3)N4)nc(OCC34CCCN3CCC4)nc2cn1-c1cccc2ccccc12` [Compound 110], the GI50 was in the range of 500 to 5000 nM. The same measure, in the same setting: the same measure for `c1ccc2c(-c3ncc4c(N5CC6CCC(C5)N6)nc(OCC56CCCN5CCC6)cc4n3)cccc2c1` [Compound 21]: 500 to 5000 nM; for `N#Cc1cc2c(N3CC4CCC(C3)N4)nc(OC[C@@]34CCCN3C[C@H](F)C4)nc2nc1-c1cc(O)cc2ccccc12` [Compound 60]: > 5000 nM. Regarding `C#Cc1c(F)ccc2cc(N)cc(-c3nc(OC)c4c(N5CC6CCC(C5)N6)nc(OC[C@@]56CCCN5C[C@H](F)C6)nc4c3F)c12` [Compound 163], the GI50 was < 500 nM. The same measure, in the same setting: the figure for `Oc1cc(-c2ncc3c(N4CC5CCC(C4)N5)cc(OC[C@@]45CCCN4C[C@H](F)C5)nc3c2F)c2ccccc2c1` [Compound 80] is 500 to 5000 nM. On the same count and under the same terms, the same measure for `C#Cc1c(F)ccc2cc(O)cc(-c3ncc4c(N5CC6CCC(C5)N6)nc(OC[C@@]56CCCN5C[C@H](F)C6)nc4c3F)c12` [Compound 129]: < 500 nM; for `C#Cc1c(F)ccc2cc(N)cc(-c3nc(OC)c4c(N5CC6CCC(C5)N6)nc(OC[C@@H]5C[C@@H](F)CN5C)nc4c3F)c12` [Compound 208]: < 500 nM. Same read-out and setting: the figure for `Cc1nc(N)cc(-c2nc(OC(C)C)c3c(N4CC5CCC(C4)N5)nc(OC[C@@]45CCCN4C[C@H](F)C5)nc3c2F)c1C(F)(F)F` [Compound 198] is < 500 nM. Turning to `C#Cc1c(F)ccc2cc(O)cc(-c3nc(C4CC4)c4c(N5CC6CCC(C5)N6)ncnc4c3F)c12` [Compound 205], the GI50 was < 500 nM.

Take `CCc1c(F)ccc2cccc(-c3nc(OC)c4c(N5CC6CCC(C5)N6)nc(OC[C@]56CCCN5[C@@H](COC(=O)N(C)C)CC6)nc4c3F)c12` [Compound 217]: the GI50 is < 500 nM. In the case of `C#Cc1c(F)ccc2cc(N)cc(-c3nc(Cl)c4c(N5CC6CCC(C5)N6)nc(OC[C@@]56CCCN5C[C@H](F)C6)nc4c3F)c12` [Compound 158], the GI50 is < 500 nM. The same measure, in the same setting: the same measure for `C#Cc1c(F)ccc2cc(O)cc(-c3nc(C(F)(F)F)c4c(N5CC6CCC(C5)N6)nc(OC[C@@]56CCCN5C[C@H](F)C6)nc4c3F)c12` [Compound 170]: < 500 nM. The same measure, in the same setting: the figure for `CCc1c(F)ccc2c(F)c(O)cc(-c3nc(C)c4c(N5CC6CCC(C5)N6)nc(OC[C@@]56CCCN5C[C@H](F)C6)nc4c3F)c12` [Compound 151] is > 5000 nM; for `CCc1c(F)ccc2cccc(-c3nc(OC(C)C)c4c(N5CC6CCC(C5)N6)nc(OC[C@]56CCCN5[C@@H](COC(=O)N(C)C)CC6)nc4c3F)c12` [Compound 223] it is < 500 nM. Turning to `Oc1cc(-c2nc(O)c3c(N4CC5CCC(C4)N5)nc(OC[C@@]45CCCN4C[C@H](F)C5)nc3c2F)c2c(Cl)c(F)ccc2c1` [Compound 174], the GI50 was 500 to 5000 nM.

Turning to `CCc1c(F)ccc2cc(N)cc(-c3nc(OC)c4c(N5CC6CCC(C5)N6)nc(OC[C@@]56CCCN5C[C@H](F)C6)nc4c3F)c12` [Compound 164], the GI50 was < 500 nM. `C#Cc1c(F)ccc2cc(O)cc(-c3nc(C4CC4)c4c(N5CC6CCC(C5)N6)nc(OC[C@@]56CCCN5C[C@H](F)C6)nc4c3F)c12` [Compound 181]: the GI50 was < 500 nM. Consider `C#Cc1c(F)ccc2cc(O)cc(-c3nc(OC(C)C)c4c(N5CC6CCC(C5)N6C)nc(OC[C@@]56CCCN5C[C@H](F)C6)nc4c3F)c12` [Compound 203], for which the GI50 was < 500 nM.

On to `C#Cc1c(F)ccc2cc(O)cc(-c3nc(OC(C)C)c4c(N5CC6CCC(C5)N6)nc(OC[C@]56CCCN5[C@@H](COC(=O)N(C)C)CC6)nc4c3F)c12` [Compound 225], for which the GI50 was < 500 nM. As for `C#Cc1c(F)ccc2c(F)c(N)cc(-c3nc(OC(C)C)c4c(N5CC6CCC(C5)N6)nc(OC[C@@]56CCCN5C[C@H](F)C6)nc4c3F)c12` [Compound 202], the GI50 is < 500 nM. Same read-out and setting: the figure for `C#Cc1c(F)ccc2cc(O)cc(-c3c(F)c4nc(OC[C@@]56CCCN5C[C@H](F)C6)nc(N5CC6CCC(C5)N6)c4c4ncnn34)c12` (single isomer, unassigned) [Compound 156] is < 500 nM. Same read-out and setting: the figure for `C#Cc1c(F)ccc2cc(O)cc(-c3nc(OCC)c4c(N5CC6CCC(C5)O6)nc(OC[C@@]56CCCN5C[C@H](F)C6)nc4c3F)c12` [Compound 169] is < 500 nM; for `C#Cc1c(F)ccc2cc(O)cc(-c3nc(OC)c4c(N5CC6CCC(C5)N6)nc(OCC5(CN6CCC6)CC5)nc4c3F)c12` [Compound 184] it is < 500 nM. For the molecule `C#Cc1c(F)ccc2cc(O)cc(-c3nc(OC)c4c(N5CC6CCC(C5)N6)nc(OCC5(CN6CCCC6)CC5)nc4c3F)c12` [Compound 183], the GI50 was < 500 nM. The same measure, in the same setting: the figure for `C#Cc1c(F)ccc2cc(O)cc(-c3nc(O)c4c(N5CC6CCC(C5)N6)nc(C(F)F)nc4c3F)c12` [Compound 211] is 500 to 5000 nM; for `C#Cc1c(F)ccc2cc(O)cc(-c3nc(OC(C)C)c4c(N5CC6CCC(C5)N6)ncnc4c3F)c12` [Compound 150] it is < 500 nM; for `C#Cc1c(F)ccc2cc(N)cc(-c3nc(OC(C)C)c4c(N5CC6CCC(C5)N6)nc(OC[C@@H]5C[C@H](F)CN5C)nc4c3F)c12` [Compound 207] it is < 500 nM. `C#Cc1c(F)ccc2cc(N)cc(-c3nc(OC(C)C)c4c(N5CC6CCC(C5)N6)nc(OC[C@@H]5C[C@@H](F)CN5C)nc4c3F)c12` [Compound 206]: the GI50 is < 500 nM. On the same count and under the same terms, the figure for `C#Cc1c(F)ccc2cc(O)cc(-c3nc(OC(C)C)c4c(N5CC6CCC(C5)N6)nc(OC[C@]56CCCN5[C@H](COC(=O)N(C)C)CC6)nc4c3F)c12` [Compound 226] is < 500 nM. Consider `CCc1c(F)ccc2cc(O)cc(-c3ncc4c(N5CC6CCC(C5)N6)nc(OC[C@@]56CCCN5C[C@H](F)C6)nc4c3F)c12` [Compound 140], for which the GI50 is < 500 nM. `C#Cc1c(F)ccc2cc(O)cc(-c3nc(OC(C)C)c4c(N5CC6CCC(C5)N6)nc(OCC5(CN6CCN(C(=O)OC)CC6)CC5)nc4c3F)c12` [Compound 232]: the GI50 was < 500 nM. With `C#Cc1c(F)ccc2cc(O)cc(-c3nc(OC)c4c(N5CC6CCC(C5)N6)nc(OCC5(CN(C)C)CC5)nc4c3F)c12` [Compound 182], the GI50 was < 500 nM.

Consider `C#Cc1c(F)ccc2cc(O)cc(-c3nc(OC(C)C)c4c(N5CC6CCC(C5)N6)nc(NC)nc4c3F)c12` [Compound 186], for which the GI50 lay in the range of 500 to 5000 nM. On the same count and under the same terms, the figure for `C#Cc1c(F)ccc2cc(O)cc(-c3nc(O)c4c(N5CC6CCC(C5)N6)nc(OC[C@@H]5CCCN5C)nc4c3F)c12` [Compound 196] is 500 to 5000 nM; for `C#Cc1c(F)ccc2cc(O)cc(-c3c(F)c4nc(OC[C@@]56CCCN5C[C@H](F)C6)nc(N5CC6CCC(C5)N6)c4c4ncnn34)c12` (single isomer, unassigned) [Compound 155] it is < 500 nM; for `C#Cc1c(F)ccc2cc(O)cc(-c3nc(OCC)c4c(N5CC6CCC(C5)N6)nc(OC[C@]56CCCN5[C@@H](COC(=O)N(C)C)CC6)nc4c3F)c12` [Compound 233] it is < 500 nM. On the same count and under the same terms, the same measure for `C#Cc1c(F)ccc2c(F)c(O)cc(-c3nc(C)c4c(N5CC6CCC(C5)N6)nc(OC[C@@]56CCCN5C[C@H](F)C6)nc4c3F)c12` [Compound 143]: < 500 nM. The same measure, in the same setting: the figure for `C#Cc1c(F)ccc2cc(O)cc(-c3nc(O)c4c(N5CC6CCC(C5)N6)nc(NC)nc4c3F)c12` [Compound 187] is 500 to 5000 nM; for `C#Cc1c(F)ccc2cc(O)cc(-c3nc(OC(C)C)c4c(N5CC6CCC(C5)N6)nc(OC[C@]56CCCN5[C@H](CO)CC6)nc4c3F)c12` [Compound 228] it is < 500 nM; for `C#Cc1c(F)ccc2cccc(-c3nc(OC(C)C)c4c(N5CC6CCC(C5)N6)nc(OC[C@]56CCCN5[C@@H](COC(=O)N(C)C)CC6)nc4c3F)c12` [Compound 222] it is < 500 nM. In the case of `C#Cc1c(F)ccc2cc(O)cc(-c3nc(OC(C)C)c4c(N5CC6CCC(C5)N6)nc(OCCOC)nc4c3F)c12` [Compound 192], the GI50 was < 500 nM. The same measure, in the same setting: the figure for `Cc1cc(-c2nc(OC(C)C)c3c(N4CC5CCC(C4)N5)nc(OC[C@@]45CCCN4C[C@H](F)C5)nc3c2F)c(C(F)(F)F)c(N)n1` [Compound 199] is < 500 nM; for `C#Cc1c(F)ccc2cc(O)cc(-c3nc(OCC)c4c(N5CC6CCC(C5)N6)nc(OCC5(CN6CCOCC6)CC5)nc4c3F)c12` [Compound 234] it is < 500 nM. With `C#Cc1c(F)ccc2cc(O)cc(-c3nc(OC(C)C)c4c(N5CCNC6(CC6)C5)nc(OC[C@@]56CCCN5C[C@H](F)C6)nc4c3F)c12` [Compound 241], the GI50 is < 500 nM.

Broadly, the Kd is the free concentration of one partner at which half of the binding sites on the other are occupied at equilibrium, for simple one-to-one binding.
